Laboratory results: patent publication US9770429B2, “4-methylsulfonyl-2-butenenitrile and its pharmaceutical use” (OLATEC THERAPEUTICS LLC, priority 2013, dated 2017)

Tested on: arachidonic acid-induced ear swelling
Experiment: topical arachidonic acid-induced ear swelling model in mice
Format: in vivo
Details: for % Inhibition of ear swelling: male ICR mice, topical application 30 min before and 15 min after arachidonic acid, measured at 90 minutes after arachidonic acid, indomethacin 14 mM (0.1 mg/20 μL), test compound 375 mM (1.1 mg/20 μL), relative to vehicle
Method: 4-Methylsulfonyl-2-butenenitrile, prepared from Example 1, was used in this experiment. The test compound, indomethacin (positive control), and vehicle were evaluated for anti-inflammatory activity in a topical arachidonic acid-induced ear swelling model in mice. Male ICR mice weighing 22±2 g were used and randomly divided; the test compound and vehicle control had 10 mice, and indomethacin had 5 mice. Arachidonic Acid (0.5 mg in 20 μl of acetone:ethanol/1:1) was applied topically to the anterior and posterior surfaces of the right ear of each mouse. Test substances and vehicle, as listed in Table 2 were similarly applied 30 min before and 15 min after arachidonic acid application. The thickness of the right ear and the left ear was measured and the difference calculated as an indication of the inflammation in the right ear. Ear swelling was measured by a Dyer model micrometer gauge at 60 and 90 minutes after arachidonic acid application as an index of inflammation. Percent inhibition was calculated according to the formula: Ic−It/Ic×100, where Ic and It refers to increase of ear thickness (mm) in control and treated mice, respectively. ANOVA and Dunnett's test were employed to ascertain significant difference between vehicle control and treated groups. Significance is set at P<0.05 level.

SMILES | anti-inflammatory activity in the mouse ear swelling model (in words) (applied topically, inflammation induced by arachidonic acid) | % Inhibition of ear swelling
CS(=O)(=O)C/C=C/C#N [4-methylsulfonyl-2-butenenitrile] | anti-inflammatory | 22%
COc1ccc2c(c1)c(CC(=O)O)c(C)n2C(=O)c1ccc(Cl)cc1 [Indomethacin, indomethacin, reference compound] |  | 58%
